The values that follow come from patent US20060122181A1, “Heteroaromatic pentacyclic compound and medicinal use thereof” (Japan Tobacco Inc., priority 2003, published 2006).

SMILES strings stand for the structures.

In one series the target is T1, Recombinant human protein tyrosine phosphatase 1B (Homo sapiens, UniProt P18031).
T1 construct: purchased UBI
T1 sequence (P18031 1-435): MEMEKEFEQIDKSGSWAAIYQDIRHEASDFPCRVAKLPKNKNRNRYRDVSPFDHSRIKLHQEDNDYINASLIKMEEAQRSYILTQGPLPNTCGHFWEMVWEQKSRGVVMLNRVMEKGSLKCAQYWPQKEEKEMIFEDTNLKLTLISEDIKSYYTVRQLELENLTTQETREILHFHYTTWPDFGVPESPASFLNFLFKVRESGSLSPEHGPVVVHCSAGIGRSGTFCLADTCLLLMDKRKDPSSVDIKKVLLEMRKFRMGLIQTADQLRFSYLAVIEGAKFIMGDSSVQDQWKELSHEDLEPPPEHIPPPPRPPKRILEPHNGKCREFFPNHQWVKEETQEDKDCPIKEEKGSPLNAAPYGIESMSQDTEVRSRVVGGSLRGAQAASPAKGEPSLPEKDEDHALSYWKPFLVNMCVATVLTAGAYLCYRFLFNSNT
The experiment in a line: Protein tyrosine phosphatase 1B inhibitory activity (malachite green, phosphorylated insulin receptor peptide substrate). In kind it is biochemical. As to conditions: recombinant human PTP1B, 60 min room temperature, absorbance 650 nm.
Take `CCCC(CCC)c1ccc(N(C)Cc2ccc(-c3csc(CN(CC(=O)O)Cc4ccccc4)n3)cc2)cc1` [Example 1-25]: the IC50 (commonly the concentration that gives 50% inhibition) is 0.13 µM.

For the compound `CN(Cc1ccc(C(=O)O)cc1)c1nc(-c2ccc(COc3ccc(C4CCCCC4)cc3)cc2)cs1` [Example 1-37], the IC50 worked out at 0.14 µM.

Turning to `CCCC(CCC)c1ccc(OCc2ccc(-c3csc(N(C)Cc4ccc(C(=O)O)cc4)n3)cc2)cc1` [Example 1-39], the IC50 was 0.19 µM.

`CCCC(CCC)c1ccc(OCc2ccc(-c3csc(CN(CC(=O)O)Cc4ccccc4)n3)cc2)cc1` [Example 1-44]: the IC50 was 0.22 µM.

On to `CCCC(CCC)c1ccc(OCc2ccc(-c3csc(CN4Cc5ccccc5CC4C(=O)O)n3)cc2)cc1` (stereo not drawn) [Example 1-45], for which the IC50 stood at 0.066 µM.

For `CCCC(CCC)c1ccc(OCc2ccc(-c3csc(COc4cncc(C(=O)O)c4)n3)cc2)cc1` [Example 1-48], the IC50 was 0.23 µM.

As for `CCCC(CCC)c1ccc(COc2ccc(C)cc2-c2csc(CN(CC(=O)O)Cc3ccccc3)n2)cc1` [Example 3-9], the IC50 is 0.17 µM.

As for `CCCC(CCC)c1ccc(COc2ccc(-c3csc(CN(CC(=O)O)Cc4ccccc4)n3)cc2)cc1` [Example 3-10], the half-maximal inhibitory concentration (IC50) worked out at 0.2 µM.

Regarding `CCC(CC)c1ccc(COc2ccc(-c3csc(CN(CC(=O)O)Cc4ccc(C(C)C)cc4)n3)cc2)cc1` [Example 3-15], the half-maximal inhibitory concentration (IC50) is 0.27 µM.

As for `CCCC(CCC)c1ccc(COc2ccc(C)cc2-c2csc(CN(CC(=O)O)Cc3ccccn3)n2)cc1` [Example 3-21], the IC50 came out at 0.45 µM.

As to `CCCC(CCC)c1ccc(COc2ccc(C)cc2-c2csc(CN3Cc4ccccc4CC3C(=O)O)n2)cc1` (stereo not drawn) [Example 3-25], the IC50 is 0.14 µM.

As to `CN(Cc1ccc(C2CCCCC2)cc1)c1ccc(-c2csc(CN(CC(=O)O)Cc3ccccc3)n2)cc1` [Example 3-29], the IC50 was 0.41 µM.

`CN(Cc1ccc([C@H]2CC[C@H](C)CC2)cc1)c1ccc(-c2csc(CN(CC(=O)O)Cc3ccccc3)n2)cc1` [Example 3-32]: the half-inhibitory concentration (IC50) came to 0.18 µM.

In the case of `CCCC(CCC)c1ccc(CN(C)c2ccc(-c3csc(CN(CC(=O)O)Cc4ccccn4)n3)cc2)cc1` [Example 3-53], the IC50 amounted to 0.28 µM.

In the case of `CC(C)Cc1ccc(CN(C)c2ccc(-c3csc(CN(CC(=O)O)C(=O)Cc4ccc(C(C)C)cc4)n3)cc2)cc1` [Example 3-58], the IC50 worked out at 0.39 µM.

The test system of a further series is male ob/ob mice. As to the kind of experiment: Hypoglycemic activity in ob/ob mice. The series is classed as in vivo. As to conditions: dose 1 mg/kg oral, fasting, relative to control group. How it is done: A 0.5% methyl cellulose suspension of the test compound was orally administered to 6- to 9-week-old male ob/ob mice grouped according to the glucose level. Only a 0.5% methyl cellulose solution was administered to a control group.
Blood was drawn under fasting condition, which condition was started simultaneously with the administration by means of removing the feed. The blood was drawn under anesthesia from the orbital vein 3 hours after the administration. The blood thus taken was centrifuged and the glucose level was measured from the obtained plasma by the hexokinase method (glucose measurement kit). For evaluation, the percentage (%) of decrease in the glucose level of the test compound-administered group relative to the control group is shown.
Consider `CCCC(CCC)c1ccc(N(C)Cc2ccc(-c3csc(CN(CC(=O)O)Cc4ccccc4)n3)cc2)cc1` [Example 1-25], for which the “blood glucose decreasing rate (%) 3 hours later” value was determined as 25%.

As for `CCCC(CCC)c1ccc(OCc2ccc(-c3csc(N(C)Cc4ccc(C(=O)O)cc4)n3)cc2)cc1` [Example 1-39], the “blood glucose decreasing rate (%) 3 hours later” value was 32%.

For the compound `CCCC(CCC)c1ccc(OCc2ccc(-c3csc(CN(CC(=O)O)Cc4ccccc4)n3)cc2)cc1` [Example 1-44], the “blood glucose decreasing rate (%) 3 hours later” value is 20%.

Regarding `CCCC(CCC)c1ccc(OCc2ccc(-c3csc(CN4Cc5ccccc5CC4C(=O)O)n3)cc2)cc1` (stereo not drawn) [Example 1-45], the “blood glucose decreasing rate (%) 3 hours later” value amounted to 32%.

For the compound `CCCC(CCC)c1ccc(OCc2ccc(-c3csc(COc4cncc(C(=O)O)c4)n3)cc2)cc1` [Example 1-48], the “blood glucose decreasing rate (%) 3 hours later” value is on record as 46%.

Regarding `CCCC(CCC)c1ccc(COc2ccc(C)cc2-c2csc(CN(CC(=O)O)Cc3ccccc3)n2)cc1` [Example 3-9], the “blood glucose decreasing rate (%) 3 hours later” value stood at 18%.

Regarding `CCCC(CCC)c1ccc(COc2ccc(-c3csc(CN(CC(=O)O)Cc4ccccc4)n3)cc2)cc1` [Example 3-10], the “blood glucose decreasing rate (%) 3 hours later” value turned out to be 18%.

As to `CCC(CC)c1ccc(COc2ccc(-c3csc(CN(CC(=O)O)Cc4ccc(C(C)C)cc4)n3)cc2)cc1` [Example 3-15], the “blood glucose decreasing rate (%) 3 hours later” value came to 25%.

`CCCC(CCC)c1ccc(COc2ccc(C)cc2-c2csc(CN(CC(=O)O)Cc3ccccn3)n2)cc1` [Example 3-21]: the “blood glucose decreasing rate (%) 3 hours later” value is recorded as 27%.

As for `CCCC(CCC)c1ccc(COc2ccc(C)cc2-c2csc(CN3Cc4ccccc4CC3C(=O)O)n2)cc1` (stereo not drawn) [Example 3-25], the “blood glucose decreasing rate (%) 3 hours later” value worked out at 20%.

Take `CN(Cc1ccc([C@H]2CC[C@H](C)CC2)cc1)c1ccc(-c2csc(CN(CC(=O)O)Cc3ccccc3)n2)cc1` [Example 3-32]: the “blood glucose decreasing rate (%) 3 hours later” value is listed as 14%.

`CCCC(CCC)c1ccc(CN(C)c2ccc(-c3csc(CN(CC(=O)O)Cc4ccccn4)n3)cc2)cc1` [Example 3-53]: the “blood glucose decreasing rate (%) 3 hours later” value is 20%.

With `CC(C)Cc1ccc(CN(C)c2ccc(-c3csc(CN(CC(=O)O)C(=O)Cc4ccc(C(C)C)cc4)n3)cc2)cc1` [Example 3-58], the “blood glucose decreasing rate (%) 3 hours later” value turned out to be 23%.

Still in this series, the particulars now being: dose 3 mg/kg oral, fasting, relative to control group.
Consider `CN(Cc1ccc(C(=O)O)cc1)c1nc(-c2ccc(COc3ccc(C4CCCCC4)cc3)cc2)cs1` [Example 1-37], for which the “blood glucose decreasing rate (%) 3 hours later” value is reported as 26%.

Take `CN(Cc1ccc(C2CCCCC2)cc1)c1ccc(-c2csc(CN(CC(=O)O)Cc3ccccc3)n2)cc1` [Example 3-29]: the “blood glucose decreasing rate (%) 3 hours later” value was 41%.

Test system in the next series: not given
Assay: not given
Conditions: not given
Consider `CCCC(CCC)c1ccc(N(C)Cc2ccc(-c3csc(CN(CC(=O)O)Cc4ccccc4)n3)cc2)cc1` [Example 1-25], for which the melting point (commonly the temperature, or range, at which the solid turns liquid) came to 138 °C.

`CN(Cc1ccc(C(=O)O)cc1)c1nc(-c2ccc(COc3ccc(C4CCCCC4)cc3)cc2)cs1` [Example 1-37]: the melting point lay within 209 to 211 °C.

`CCCC(CCC)c1ccc(OCc2ccc(-c3csc(N(C)Cc4ccc(C(=O)O)cc4)n3)cc2)cc1` [Example 1-39] came in with a melting point of 156 to 158 °C.

In the case of `CCCC(CCC)c1ccc(OCc2ccc(-c3csc(CN(CC(=O)O)Cc4ccccc4)n3)cc2)cc1` [Example 1-44], the melting point lay in the range of 138 to 142 °C.

For `CCCC(CCC)c1ccc(OCc2ccc(-c3csc(CN4Cc5ccccc5CC4C(=O)O)n3)cc2)cc1` (stereo not drawn) [Example 1-45], the melting point is 117 to 126 °C.

`CCCC(CCC)c1ccc(OCc2ccc(-c3csc(COc4cncc(C(=O)O)c4)n3)cc2)cc1` [Example 1-48] came in with a melting point of 165 to 171 °C.

With `CCCC(CCC)c1ccc(COc2ccc(C)cc2-c2csc(CN(CC(=O)O)Cc3ccccc3)n2)cc1` [Example 3-9], the melting point lay in the range of 126 to 128 °C.

Turning to `CCCC(CCC)c1ccc(COc2ccc(-c3csc(CN(CC(=O)O)Cc4ccccc4)n3)cc2)cc1` [Example 3-10], the melting point lay in the range of 145 to 148 °C.

For `CCC(CC)c1ccc(COc2ccc(-c3csc(CN(CC(=O)O)Cc4ccc(C(C)C)cc4)n3)cc2)cc1` [Example 3-15], the melting point fell in the range of 138 to 140 °C.

In turn, `CCCC(CCC)c1ccc(COc2ccc(C)cc2-c2csc(CN(CC(=O)O)Cc3ccccn3)n2)cc1` [Example 3-21] gave a melting point of 118 to 120 °C.

As to `CCCC(CCC)c1ccc(COc2ccc(C)cc2-c2csc(CN3Cc4ccccc4CC3C(=O)O)n2)cc1` (stereo not drawn) [Example 3-25], the melting point was 149 to 152 °C.

As for `CN(Cc1ccc(C2CCCCC2)cc1)c1ccc(-c2csc(CN(CC(=O)O)Cc3ccccc3)n2)cc1` [Example 3-29], the melting point was 148 to 150 °C.

`CN(Cc1ccc([C@H]2CC[C@H](C)CC2)cc1)c1ccc(-c2csc(CN(CC(=O)O)Cc3ccccc3)n2)cc1` [Example 3-32] registered a melting point of 157 to 159 °C.

The compound `CCCC(CCC)c1ccc(CN(C)c2ccc(-c3csc(CN(CC(=O)O)Cc4ccccn4)n3)cc2)cc1` [Example 3-53] showed a melting point of 117 to 120 °C.

As for `CC(C)Cc1ccc(CN(C)c2ccc(-c3csc(CN(CC(=O)O)C(=O)Cc4ccc(C(C)C)cc4)n3)cc2)cc1` [Example 3-58], the melting point was in the range of 124 to 126 °C.
